According to patent US4826854A, “Certain cycloalka-(b)-pyrazolo(3,4-d)-pyridin-3-one derivatives” (Ciba-Geigy Corporation, priority 1987, dated 1989):

How the values were obtained:
benzodiazepine receptor = benzodiazepine receptor binding and agonist/antagonist profile (3H-flunitrazepam displacement, rat brain membranes)
Procedure: The benzodiazepine receptor binding properties indicative of the nervous system regulatory activity of said new compounds are determined in the receptor binding assay in vitro, e.g. similarly to that in Nature 266, 732 (1977) or Proc. Nat. Acad. Sci. USA 74, 3805 (1977). When tritiated flunitrazepam is used, the interaction of other drugs with said receptor can be readily assessed thus: Synaptosnal membranes from rat fore-brain are incubated at 0°-5° for 30 minutes with 0.5 nM tritiated flunitrazepam and various concentrations of the test substance in a buffer medium maintained at pH 7.5. […] The membranes, containing the receptors with various amounts of tritiated flunitrazepam, are filtered onto glass fiber filters, which are then analyzed in a liquid scintillation counter. […]
The pharmacological agonist and/or antagonist/inverse agonist profile of the benzodiazepine receptor modulators of the invention can also be determined by measuring their effect in a rat brain membrane preparation on the displacement of ^3 H-flunitrazepam in the presence or absence of gamma-aminobutric acid (GABA), on the enhancement of ^3 H-muscimol binding by etazolate, or on the binding of ^35 S-butyl bicyclophosphorothionate (TBPS), e.g. as described in J. Pharmacol. Exp. Ther. 231, 572 (1984).

rat = test: discrimination test in the rat; type: in vivo; conditions: test compounds administered orally
Text: Illustrative thereof is the compound of example 1.
The diazepam discrimination test, can also be used to determine benzodiazepine antagonist properties.

male Wistar rats = test: Cook-Davidson conflict procedure (anxiolytic effects); type: in vivo, rat; conditions: e.g. as determined in the Cook-Davidson model
Text: Anxiolytic effects are observed, for example, by measuring the antagonism of pentylenetetrazol discriminative stimuli in the rat and according to the Cook-Davidson conflict procedure, using male Wistar rats, e.g. as described in Drug Development Research 6: 313-325 (1985).

pharmacological profile at the benzodiazepine receptor (benzodiazepine receptor)	Compound	generalization to the discrimination test (rat)	anxiolytic properties (male Wistar rats)
benzodiazepine agonist profile	COc1ccc(-n2nc3c4c([nH]cc-3c2=O)CCCCCC4)cc1 [Example 1, 2-(4-methoxyphenyl)-2,3,6,7,8,9,10,11-octahydrocycloocta[b]pyrazolo[3,4-d]pyridin-3(5H)-one]	do not generalize to the discrimination test	demonstrate anxiolytic properties
benzodiazepine agonist profile	O=c1c2c[nH]c3c(c-2nn1-c1ccc(Cl)cc1)CCCCCC3 [Example 2b, 2-(4-chlorophenyl)-2,3,6,7,8,9,10,11-octahydrocycloocta[b]pyrazolo[3,4-d]-pyridin-3(5H)-one]		
